Test results taken from US4882349A, “Pyrrolacetic amides having antiinflammatory activity” (priority 1982, dated 1989).
Read-outs that look alike come from different tables or passages of the source.

Columns and labels:
[1] = tested on: phenyl-p-quinone-induced writhing (abdominal contractions); assay: phenylquinone-induced writhing test, oral administration 1-24 h before phenyl-quinone (duration of analgesia); type: in vivo, male Wistar rats
Experimental: Male Wistar rats weighing 110±5 g were caged for 10 days at 22±1° C. and given a balanced diet with free access to water. Twenty-four hours before the experiment the animals were randomized into groups of 10 and fasted for 14 hours but with free access to water. Each dose was tested in 3 groups of rats. […] alone (0.5% carboxymethyl-cellulose in physiological saline) in the control animals, each rat was given 2 ml of a 5% absolute ethanol aqueous solution containing 0.36% of phenyl-p-quinone (Sigma Chemical Company) in order to provoke writhings. Fifteen minutes after administration of phenyl-p-quinone the number of contractions were counted for 20 minutes. The inhibiting effect of the compounds under examination on the abdominal contractions induced by phenyl-p-quinone was calculated by the following formula: % protection= [formula]

[2] = tested on: gastric lesions; type: in vivo, male Wistar rats; details: 4 consecutive days; for gastric damage index: I=mean no. of lesions+mean of severity+% incidence/10; for mean severity: scale 0 (no lesion) to 5 (perforations)
Experimental: Male Wistar rats weighing 180 g were randomized into groups of 10. Three doses of each compound were administered. One group received the vehicle alone (10 ml/kg b.w.). Each dose was given orally for four days consecutively and the rats were sacrificed on the fifth day for necropsy. The ulcerogenic effect was evaluated by the following scale:
(1) each haemorrhagic point at least 1 mm in diameter was scored as 1 lesion,
(2) haemorrhagic points less than 1 mm in diameter were scored in the following manner:
(c) 20 to 29=three lesions
By means of this scale it was possible to obtain the gastric damage index:
I=mean no. of lesions+mean of severity+% incidence/10

[3] = tested on: brewers' yeast-induced hyperthermia; assay: antipyretic activity, brewers' yeast-induced hyperthermia; type: in vivo, albino male Wistar rats
Experimental: The animals were caged under the same conditions as those described in the preceding tests. Five hours following […], determined by a rectal probe connected to a YSI thermometer (73 ATP model, Yellow Springs Instrument Company) were selected for the experiment. The animals were then randomized into groups of 10 and the compounds under examination and the vehicle were administered via the oral and parenteral routes testing each dose in two groups. Body temperature was determined at one, two and three hours after administration of the substances. […]

[4] = solubility; type: physicochemical

COc1ccccc1OC(=O)CNC(=O)Cc1ccc(C(=O)c2ccc(C)cc2)n1C [Compound 1-d, 1-methyl-5-p-toluoylpyrrole-2-acetamidoacetic acid guaiacyl ester]
% Protection ([1]; 10 mg/Kg oral, 1 h before phenyl-quinone): 55.7%
% Protection ([1]; 10 mg/Kg oral, 2 h before phenyl-quinone): 43.3%
% Protection ([1]; 10 mg/Kg oral, 4 h before phenyl-quinone): 40.1%
% Protection ([1]; 10 mg/Kg oral, 6 h before phenyl-quinone): 44.0%
% Protection ([1]; 10 mg/Kg oral, 8 h before phenyl-quinone): 32.0%
% Protection ([1]; 10 mg/Kg oral, 16 h before phenyl-quinone): 12.1%
% Protection ([1]; 10 mg/Kg oral, 24 h before phenyl-quinone): 10.0%
% Protection ([1]; 20 mg/Kg oral, 1 h before phenyl-quinone): 78.1%
% Protection ([1]; 20 mg/Kg oral, 2 h before phenyl-quinone): 80.6%
% Protection ([1]; 20 mg/Kg oral, 4 h before phenyl-quinone): 70.5%
% Protection ([1]; 20 mg/Kg oral, 6 h before phenyl-quinone): 66.3%
% Protection ([1]; 20 mg/Kg oral, 8 h before phenyl-quinone): 71.0%
% Protection ([1]; 20 mg/Kg oral, 16 h before phenyl-quinone): 23.6%
% Protection ([1]; 20 mg/Kg oral, 24 h before phenyl-quinone): 25.0%
% Protection ([1]; 50 mg/Kg oral, 1 h before phenyl-quinone): 86.4%
% Protection ([1]; 50 mg/Kg oral, 2 h before phenyl-quinone): 87.0%
% Protection ([1]; 50 mg/Kg oral, 4 h before phenyl-quinone): 81.5%
% Protection ([1]; 50 mg/Kg oral, 6 h before phenyl-quinone): 76.8%
% Protection ([1]; 50 mg/Kg oral, 8 h before phenyl-quinone): 75.0%
% Protection ([1]; 50 mg/Kg oral, 16 h before phenyl-quinone): 60.7%
% Protection ([1]; 50 mg/Kg oral, 24 h before phenyl-quinone): 64.0%
% incidence/10 (head is drawing 38) ([2]; 50 mg/Kg orally): 6
mean no. of lesions ([2]; 50 mg/Kg orally): 1.5
gastric damage index ([2]; 50 mg/Kg orally): 8.5
mean severity ([2]; 50 mg/Kg orally): 1
% incidence/10 (head is drawing 38) ([2]; 100 mg/Kg orally): 9
mean no. of lesions ([2]; 100 mg/Kg orally): 2
gastric damage index ([2]; 100 mg/Kg orally): 12.5
mean severity ([2]; 100 mg/Kg orally): 1.5
% incidence/10 (head is drawing 38) ([2]; 200 mg/Kg orally): 9
mean no. of lesions ([2]; 200 mg/Kg orally): 2
gastric damage index ([2]; 200 mg/Kg orally): 13
mean severity ([2]; 200 mg/Kg orally): 2
% Temperature decrease ([3]; 50 mg/Kg i.p., 1 h): 16.0%
% Temperature decrease ([3]; 50 mg/Kg i.p., 2 h): 23.0%
% Temperature decrease ([3]; 50 mg/Kg i.p., 3 h): 37.5%
% Temperature decrease ([3]; 50 mg/Kg per os, 1 h): 14.0%
% Temperature decrease ([3]; 50 mg/Kg per os, 2 h): 22.0%
% Temperature decrease ([3]; 50 mg/Kg per os, 3 h): 31.6%
% Temperature decrease ([3]; 75 mg/Kg i.p., 1 h): 22.1%
% Temperature decrease ([3]; 75 mg/Kg i.p., 2 h): 33.4%
% Temperature decrease ([3]; 75 mg/Kg i.p., 3 h): 39.8%
% Temperature decrease ([3]; 75 mg/Kg per os, 1 h): 18.5%
% Temperature decrease ([3]; 75 mg/Kg per os, 2 h): 23.4%
% Temperature decrease ([3]; 75 mg/Kg per os, 3 h): 29.1%
% Temperature decrease ([3]; 100 mg/Kg i.p., 1 h): 28.1%
% Temperature decrease ([3]; 100 mg/Kg i.p., 2 h): 37.2%
% Temperature decrease ([3]; 100 mg/Kg i.p., 3 h): 60.4%
% Temperature decrease ([3]; 100 mg/Kg per os, 1 h): 22.0%
% Temperature decrease ([3]; 100 mg/Kg per os, 2 h): 42.5%
% Temperature decrease ([3]; 100 mg/Kg per os, 3 h): 59.0%
Solubility [4]: soluble in the common organic solvents
